In patent US9045524B2, “Selective caspase inhibitors and uses thereof” (NOVAGENESIS FOUNDATION, priority 2009, dated 2015):

Key:
Caspase-9 = Caspase-9 (Homo sapiens (Human), UniProt P55211); test: Caspase-9 Inhibitor Drug Screening Kit, fluorometric (AFC liberation); format: biochemical; details: 30-minute incubation at 37° C.; approximations of the average values; read-out: Caspase enzymatic activity, IC50 (uM) Caspase 9
Method: The level of inhibition of caspase-1, -3, -5, -7, -9 activity was determined by comparison of the relative fluorescence intensity in samples with or without the compound.

EAE in C57BL/6 mice = test: Chronic EAE mouse model (MOG35-55 immunization), daily clinical score and body weight; format: in vivo; parameters: key to Delay in onset of the disease / Reduction in severity of the disease / Reduction in body weight loss: +++: high level improvement; ++: moderate improvement; +: small improvement; −: no improvement
Procedure, shortened: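 Female C57BL/6 mice, 7–8 weeks old, were immunized s.c. with 100 μg MOG35-55 in CFA containing M. tuberculosis H37Ra, plus 200 ng pertussis toxin i.p. on days 0 and 2. […], compound in 2.5% DMSO/PBS was given i.p.; vehicle for placebo. Clinical score (0–5) and body weight were recorded daily.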

[1] = FIG. 1, i.p. from day 10 to 16 post immunization, versus placebo
[2] = FIG. 3, i.p. from day 14 to 19 post immunization, versus placebo
[3] = FIG. 4, administration for 15 days from day 12 post-immunization, versus placebo
[4] = average overall effects on the EAE model, i.p.

Chain of Caspase-9 (P55211 whole entry): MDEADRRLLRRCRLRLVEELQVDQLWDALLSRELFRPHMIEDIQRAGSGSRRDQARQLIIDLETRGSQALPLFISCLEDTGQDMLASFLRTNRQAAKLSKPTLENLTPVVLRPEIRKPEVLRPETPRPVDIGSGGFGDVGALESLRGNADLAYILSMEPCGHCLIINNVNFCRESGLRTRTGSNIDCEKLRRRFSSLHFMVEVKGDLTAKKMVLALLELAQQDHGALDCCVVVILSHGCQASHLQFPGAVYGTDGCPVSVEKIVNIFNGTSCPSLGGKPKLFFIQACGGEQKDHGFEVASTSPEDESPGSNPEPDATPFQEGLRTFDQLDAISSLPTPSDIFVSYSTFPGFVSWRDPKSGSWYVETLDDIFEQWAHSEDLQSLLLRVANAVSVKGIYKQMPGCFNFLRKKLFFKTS

## CC(C)[C@H](NC(=O)[C@@H](NC(=O)[C@H](CC(=O)O)NC(=O)OCc1ccccc1)c1ccccc1)C(=O)N[C@H](/C=C/S(C)(=O)=O)CC(=O)O [Compound 53, Z-Asp-Phg-Val-Aspmethyl vinyl sulfone]
Caspase-9
  IC50: > 10 µM
EAE in C57BL/6 mice; [1]
  Cumulative clinical score: significantly lower compared to placebo
  Disease onset: delayed
  Loss of body weight: less than the placebo
  clinical severity of the disease: reduced significantly
  maximal clinical score: significantly lower compared to placebo
EAE in C57BL/6 mice; FIG. 3, i.p. from day 14 to 19 post immunization, twice the concentration of compound 53
  delay of the clinical score (symptoms of EAE): delayed significantly the clinical score
EAE in C57BL/6 mice; [2]
  Loss of body weight: less than in the placebo group
  effects on the clinical course of EAE: ameliorating effects
EAE in C57BL/6 mice; [3]
  Loss of body weight: less than placebo
  severity of the disease: began to reverse the effects of the disease and reduced the severity of the disease continuously
EAE in C57BL/6 mice; [4]
  Delay in onset of the disease: +++
  Reduction in body weight loss: +++
  Reduction in severity of the disease: +++
